Columns and labels:
Assay type in all cases: functional
NCI-H522 = experiment: Cytotoxicity against Homo sapiens (human) NCI-H522 cells assessed as growth inhibition at 10 uM after 48 hr by coulter counter analysis; details: NCI-H522, 48 h, read-out: GI
RPMI-8226 = experiment: Cytotoxicity against Homo sapiens (human) RPMI8226 cells assessed as growth inhibition at 10 uM after 48 hr by coulter counter analysis; details: RPMI-8226, 48 h, read-out: GI
HOP-62 = experiment: Cytotoxicity against Homo sapiens (human) HOP62 cells assessed as growth inhibition at 10 uM after 48 hr by coulter counter analysis; details: HOP-62, 48 h, read-out: GI
UACC-62 = experiment: Cytotoxicity against Homo sapiens (human) UACC62 cells assessed as growth inhibition at 10 uM after 48 hr by coulter counter analysis; details: UACC-62, 48 h, read-out: GI
CCRF-CEM = experiment: Cytotoxicity against Homo sapiens (human) CCRF-CEM cells assessed as growth inhibition at 10 uM after 48 hr by coulter counter analysis; details: read-out: GI
BT-549 = experiment: Cytotoxicity against Homo sapiens (human) BT549 cells assessed as growth inhibition at 10 uM after 48 hr by coulter counter analysis; details: BT-549, 48 h, read-out: GI
PC-3 = experiment: Cytotoxicity against Homo sapiens (human) PC3 cells assessed as growth inhibition at 10 uM after 48 hr by coulter counter analysis; details: PC-3, 48 h, read-out: GI
K562 = experiment: Cytotoxicity against Homo sapiens (human) K562 cells assessed as growth inhibition at 10 uM after 48 hr by coulter counter analysis; details: K562, 48 h, read-out: GI
786-0 = experiment: Cytotoxicity against Homo sapiens (human) 786-0 cells assessed as growth inhibition at 10 uM after 48 hr by coulter counter analysis; details: 786-0, 48 h, read-out: GI
MDA-MB-468 = experiment: Cytotoxicity against Homo sapiens (human) MDA-MB-468 cells assessed as growth inhibition at 10 uM after 48 hr by coulter counter analysis; details: MDA-MB-468, 48 h, read-out: GI
T47D = experiment: Cytotoxicity against Homo sapiens (human) T47D cells assessed as growth inhibition at 10 uM after 48 hr by coulter counter analysis; details: read-out: GI
SF-295 = experiment: Cytotoxicity against Homo sapiens (human) SF295 cells assessed as growth inhibition at 10 uM after 48 hr by coulter counter analysis; details: SF-295, 48 h, read-out: GI
HL-60(TB) = experiment: Cytotoxicity against Homo sapiens (human) HL-60(TB) cells assessed as growth inhibition at 10 uM after 48 hr by coulter counter analysis; details: HL-60, 48 h, read-out: GI
MCF7 = experiment: Cytotoxicity against Homo sapiens (human) MCF7 cells assessed as growth inhibition at 10 uM after 48 hr by coulter counter analysis; details: MCF7, 48 h, read-out: GI
SF-539 = experiment: Cytotoxicity against Homo sapiens (human) SF539 cells assessed as growth inhibition at 10 uM after 48 hr by coulter counter analysis; details: SF-539, 48 h, read-out: GI
SNB-75 = experiment: Cytotoxicity against Homo sapiens (human) SNB75 cells assessed as growth inhibition at 10 uM after 48 hr by coulter counter analysis; details: SNB-75, 48 h, read-out: GI
HCT-15 = experiment: Cytotoxicity against Homo sapiens (human) HCT15 cells assessed as growth inhibition at 10 uM after 48 hr by coulter counter analysis; details: HCT-15, 48 h, read-out: GI
OVCAR-3 = experiment: Cytotoxicity against Homo sapiens (human) OVCAR3 cells assessed as growth inhibition at 10 uM after 48 hr by coulter counter analysis; details: OVCAR-3, 48 h, read-out: GI
MDA-MB-435 = experiment: Cytotoxicity against Homo sapiens (human) MDA-MB-435 cells assessed as growth inhibition at 10 uM after 48 hr by coulter counter analysis; details: MDA-MB-435, 48 h, read-out: GI
SK-MEL-5 = experiment: Cytotoxicity against Homo sapiens (human) SK-MEL-5 cells assessed as growth inhibition at 10 uM after 48 hr by coulter counter analysis; details: SK-MEL-5, 48 h, read-out: GI
COLO 205 = experiment: Cytotoxicity against Homo sapiens (human) COLO205 cells assessed as growth inhibition at 10 uM after 48 hr by coulter counter analysis; details: COLO 205, 48 h, read-out: GI
OVCAR-5 = experiment: Cytotoxicity against Homo sapiens (human) OVCAR5 cells assessed as growth inhibition at 10 uM after 48 hr by coulter counter analysis; details: OVCAR-5, 48 h, read-out: GI
NCI-H460 = experiment: Cytotoxicity against Homo sapiens (human) NCI-H460 cells assessed as growth inhibition at 10 uM after 48 hr by coulter counter analysis; details: NCI-H460, 48 h, read-out: GI

Structure (SMILES)	inhibition of growth at 10 µM (NCI-H522)	inhibition of growth at 10 µM (RPMI-8226)	inhibition of growth at 10 µM (HOP-62)	inhibition of growth at 10 µM (UACC-62)	inhibition of growth at 10 µM (CCRF-CEM)	inhibition of growth at 10 µM (BT-549)	inhibition of growth at 10 µM (PC-3)	inhibition of growth at 10 µM (K562)	inhibition of growth at 10 µM (786-0)	inhibition of growth at 10 µM (MDA-MB-468)	inhibition of growth at 10 µM (T47D)	inhibition of growth at 10 µM (SF-295)	inhibition of growth at 10 µM (HL-60(TB))	inhibition of growth at 10 µM (MCF7)	inhibition of growth at 10 µM (SF-539)	inhibition of growth at 10 µM (SNB-75)	inhibition of growth at 10 µM (HCT-15)	inhibition of growth at 10 µM (OVCAR-3)	inhibition of growth at 10 µM (MDA-MB-435)	inhibition of growth at 10 µM (SK-MEL-5)	other results
O=c1[nH]c(-c2ccccc2)nc2c1C(c1ccc(Cl)cc1)C1=C(CCCC1)N2 (configuration not stated)	20.2%	< 10%	< 10%	< 10%	< 10%	< 10%	< 10%	11.2%	< 10%	< 10%	15.5%	< 10%	< 10%	< 10%	< 10%	15.5%	< 10%	< 10%	< 10%	17.8%	inhibition of growth at 10 µM (COLO 205): < 10%; inhibition of growth at 10 µM (OVCAR-5): < 10%; inhibition of growth at 10 µM (NCI-H460): < 10%
COc1ccc(C2C3=C(CCCC3)Nc3nc(-c4ccccc4)[nH]c(=O)c32)cc1OC (configuration not stated)	14.5%	< 10%	15.7%	14.4%	< 10%	< 10%	13.5%	< 10%	< 10%	21.2%	21.1%	< 10%	< 10%	< 10%	< 10%	28.4%	< 10%	< 10%	< 10%	10.9%	inhibition of growth at 10 µM (COLO 205): 15.9%; inhibition of growth at 10 µM (OVCAR-5): 12.6%; inhibition of growth at 10 µM (NCI-H460): < 10%
Clc1ccc(C2C3=C(CCCC3)Nc3ncn4nc(-c5ccccc5)nc4c32)cc1 (configuration not stated)	23.5%	12.3%	16%	13.4%	< 10%	< 10%	19.7%	< 10%	< 10%	23.1%	14.7%	< 10%	< 10%	< 10%	< 10%	10.5%	10.2%	< 10%	< 10%	< 10%	inhibition of growth at 10 µM (COLO 205): 11.5%; inhibition of growth at 10 µM (OVCAR-5): < 10%; inhibition of growth at 10 µM (NCI-H460): < 10%
Oc1ccc(-c2nc3c4c(ncn3n2)NC2=C(CCCC2)C4c2ccc(Cl)cc2)cc1 (configuration not stated)	< 10%	13.2%	16.6%	17.4%	13.2%	< 10%	10.4%	< 10%	< 10%	< 10%	15.8%	< 10%	13.5%	< 10%	< 10%	20.5%	< 10%	< 10%	< 10%	< 10%	inhibition of growth at 10 µM (COLO 205): < 10%; inhibition of growth at 10 µM (OVCAR-5): < 10%; inhibition of growth at 10 µM (NCI-H460): < 10%
